Measurements published in the supplement of paper PMC10331698.
± gives the standard deviation of the averaged measurements.

Tests used:
Test in all cases: level (log10 ratio to DMSO vehicle control); higher = higher biomarker level / cell amount than vehicle control
[1] = compound: CN(C(=O)C(F)(F)C(F)(F)C(F)(F)F)[Si](C)(C)C [N-Methyl-N-trimethylsilylheptafluorobutyramide] (in DMSO)
Procedure: (§1)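 BioMAP Diversity Plus panel of 12 human primary cell co-culture systems (3C, 4H, LPS, SAg, BT, BF4T, BE3C, CASM3C, HDF3CGF, KF3CT, MyoF, Mphg). Compounds were added 1 h before stimulation and left for 24 h (MyoF 48 h; BT 72 h for soluble read-outs or 6 d for IgG). Biomarkers were read by ELISA, cytotoxicity by SRB, PBMC viability and proliferation by Alamar Blue. Each well value was divided by the mean of 8 DMSO control wells on the same plate and log10 transformed; duplicate blinded samples were tested at 4 concentrations.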

[2] = compound: O=C(O)C=C(C(F)(F)F)C(F)(F)F [3,3-Bis(trifluoromethyl)-2-propenoic acid] (in DMSO)
Procedure: as §1

[3] = compound: O=C(O)C(F)(OC(F)(F)C(F)(F)C(F)(F)F)C(F)(F)F [Ammonium perfluoro-2-methyl-3-oxahexanoate] (in Water)
Procedure: as §1

[4] = compound: O=C(O)C(F)(F)C(F)(F)C(F)(F)OC(F)(F)F [Perfluoro(4-methoxybutanoic) acid] (in DMSO)
Procedure: as §1

[5] = compound: OCC(F)(F)C(F)(F)C(F)(F)C(F)(F)C(F)(F)C(F)(F)CO [1H,1H,8H,8H-Perfluorooctane-1,8-diol] (in DMSO)
Procedure: as §1

[6] = compound: O=S(=O)(O)CCC(F)(F)C(F)(F)C(F)(F)C(F)(F)C(F)(F)C(F)(F)C(F)(F)C(F)(F)F [8:2 Fluorotelomer sulfonic acid] (in DMSO)
Procedure: as §1

[7] = compound: CO[Si](C)(CCC(F)(F)C(F)(F)C(F)(F)C(F)(F)C(F)(F)C(F)(F)F)OC [Dimethoxymethyl((perfluorohexyl)ethyl)silane] (in DMSO)
Procedure: as §1

Test System | level (log10) ([1]; 6700 nM) | level (log10) ([1]; 20000 nM) | level (log10) ([1]; 60000 nM) | level (log10) ([2]; 6700 nM) | level (log10) ([2]; 20000 nM) | level (log10) ([2]; 60000 nM) | level (log10) ([3]; 6700 nM) | level (log10) ([3]; 20000 nM) | level (log10) ([3]; 60000 nM) | level (log10) ([4]; 6700 nM) | level (log10) ([4]; 20000 nM) | level (log10) ([4]; 60000 nM) | level (log10) ([5]; 6700 nM) | level (log10) ([5]; 20000 nM) | level (log10) ([5]; 60000 nM) | level (log10) ([6]; 6700 nM) | level (log10) ([6]; 20000 nM) | level (log10) ([6]; 60000 nM) | level (log10) ([7]; 6700 nM) | level (log10) ([7]; 20000 nM)
3C:CD87/uPAR | -0.0105 ± 0.0021 | -0.0155 ± 0.0078 | -0.007 ± 0.0042 | 0.0225 ± 0.0035 | 0.014 ± 0.02 | -0.0035 ± 0.013 | -0.016 ± 0.054 | -0.0085 ± 0.028 | -0.042 ± 0.021 | -0.03 ± 0.058 | -0.035 ± 0.051 | -0.0265 ± 0.04 | -0.0245 ± 0.026 | -0.0125 ± 0.0092 | -0.019 ± 0.0028 | 0.0195 ± 0.016 | -0.001 ± 0.058 | -0.003 ± 0.03 | -0.002 ± 0.0071 | -0.026 ± 0.021
3C:CXCL8/IL-8 | -0.016 ± 0.0071 | -0.017 ± 0.0042 | 0.007 ± 0.017 | 0.038 ± 0.02 | 0.0255 ± 0.04 | 0.061 ± 0.071 | 0.038 ± 0.037 | 0.0745 ± 0.029 | 0.131 ± 0.014 | 0.008 ± 0.014 | 0.001 ± 0.0099 | 0.022 ± 0.025 | -0.0045 ± 0.0021 | -0.0055 ± 0.0064 | 0.0245 ± 0.023 | -0.0005 ± 0.13 | 0.012 ± 0.057 | 0.079 ± 0.024 | -0.007 ± 0.0014 | 0.011 ± 0.0057
3C:CXCL9/MIG | -0.0045 ± 0.0035 | -0.0005 ± 0.0035 | 0.0065 ± 0.0092 | -0.015 ± 0.017 | -0.004 ± 0.028 | 0.013 ± 0.025 | -0.0085 ± 0.011 | -0.003 ± 0.0099 | -0.004 | -0.012 ± 0.013 | -0.012 ± 0.017 | -0.001 ± 0.013 | 0.0015 ± 0.0035 | -0.0025 ± 0.005 | 0.0105 ± 0.013 | -0.004 ± 0.0014 | 0.004 ± 0.013 | -0.0045 ± 0.0035 | -0.011 ± 0.0014 | 0.003 ± 0.0071
3C:HLA-DR | 0.0015 ± 0.015 | 0.0045 ± 0.012 | 0.0285 ± 0.033 | -0.012 ± 0.014 | -0.0415 ± 0.039 | -0.189 ± 0.031 | 0.0075 ± 0.011 | 0.0175 ± 0.028 | 0.016 ± 0.0014 | 0.0105 ± 0.013 | 0.0055 ± 0.023 | 0.0015 ± 0.016 | -0.0115 ± 0.015 | -0.007 ± 0.0085 | -0.0175 ± 0.026 | -0.0155 ± 0.012 | -0.011 ± 0.0071 | -0.011 ± 0.0085 | 0.013 ± 0.014 | 0.029 ± 0.013
3C:Proliferation | -0.0305 ± 0.0092 | 0.003 ± 0.027 | -0.005 ± 0.0057 | -0.0425 ± 0.0021 | -0.089 ± 0.02 | -0.189 ± 0.1 | -0.0765 ± 0.015 | -0.136 ± 0.031 | -0.149 ± 0.023 | -0.057 ± 0.023 | -0.0055 ± 0.046 | -0.036 ± 0.03 | -0.059 ± 0.024 | -0.0565 ± 0.013 | -0.106 ± 0.042 | 0.004 ± 0.086 | -0.0315 ± 0.083 | -0.053 ± 0.018 | 0.003 ± 0.014 | -0.0055 ± 0.03
3C:SRB | 0.0135 ± 0.013 | 0.0035 ± 0.032 | 0.0075 ± 0.011 | 0.0105 ± 0.019 | -0.005 ± 0.025 | -0.062 ± 0.03 | -0.019 ± 0.011 | -0.021 ± 0.0042 | -0.045 | -0.0175 ± 0.018 | -0.0255 ± 0.018 | -0.0195 ± 0.0064 | 0.012 ± 0.017 | 0.0035 ± 0.025 | -0.0045 ± 0.04 | -0.017 ± 0.0057 | -0.019 ± 0.018 | -0.0705 ± 0.028 | -0.006 ± 0.0028 | 0.0085 ± 0.0035
4H:CCL2/MCP-1 | -0.0405 ± 0.028 | -0.0525 ± 0.039 | 0.0195 ± 0.11 | -0.051 ± 0.035 | -0.0675 ± 0.005 | -0.081 ± 0.052 | 0.0005 ± 0.029 | 0.007 ± 0.037 | 0.008 ± 0.051 | -0.0235 ± 0.013 | -0.026 ± 0.0028 | 0.0005 ± 0.061 | -0.058 ± 0.04 | -0.0485 ± 0.018 | -0.012 ± 0.02 | -0.001 ± 0.014 | -0.033 ± 0.016 | 0.0125 ± 0.046 | -0.05 ± 0.033 | 0.011 ± 0.12
4H:CCL26/Eotaxin-3 | -0.0005 ± 0.005 | -0.001 | -0.003 ± 0.024 | -0.02 ± 0.044 | -0.042 ± 0.0042 | -0.121 ± 0.0064 | -0.0615 ± 0.0021 | -0.064 ± 0.0014 | -0.118 ± 0.012 | 0.018 ± 0.0085 | 0.0205 ± 0.013 | 0.0245 ± 0.023 | 0.0095 ± 0.019 | 0.0125 ± 0.019 | 0.0125 ± 0.0021 | 0.0095 ± 0.06 | -0.0325 ± 0.015 | -0.075 ± 0.0042 | -0.0125 ± 0.023 | 0.011 ± 0.014
4H:CD62P/P-selectin | -0.0065 ± 0.067 | -0.011 ± 0.052 | 0.002 ± 0.047 | 0.005 ± 0.0042 | -0.0505 ± 0.022 | -0.164 ± 0.028 | -0.0475 ± 0.012 | -0.0065 ± 0.03 | -0.054 ± 0.048 | 0.0035 ± 0.0078 | 0.033 ± 0.068 | -0.005 ± 0.059 | -0.039 ± 0.0028 | 0.004 ± 0.011 | 0.0355 ± 0.0021 | -0.0315 ± 0.09 | -0.034 ± 0.099 | -0.015 ± 0.071 | -0.0095 ± 0.033 | -0.0135 ± 0.036
4H:CD87/uPAR | 0.011 ± 0.021 | 0.0135 ± 0.016 | 0.0055 ± 0.019 | -0.053 ± 0.038 | -0.0455 ± 0.037 | -0.025 ± 0.062 | -0.033 ± 0.027 | -0.024 ± 0.033 | -0.06 ± 0.0014 | 0.0495 ± 0.039 | 0.035 ± 0.048 | 0.046 ± 0.04 | -0.013 ± 0.0014 | -0.0065 ± 0.0021 | -0.03 ± 0.017 | 0.026 ± 0.0028 | -0.01 ± 0.023 | -0.0345 ± 0.015 | 0.004 ± 0.028 | 0.0195 ± 0.013
4H:CD106/VCAM-1 | -0.011 | -0.0305 ± 0.049 | -0.023 ± 0.065 | -0.12 ± 0.037 | -0.143 ± 0.017 | -0.25 ± 0.028 | -0.0455 ± 0.005 | -0.0365 ± 0.018 | -0.037 ± 0.021 | -0.0105 ± 0.012 | -0.0075 ± 0.005 | -0.002 ± 0.018 | -0.0295 ± 0.005 | 0.015 ± 0.023 | -0.007 ± 0.0085 | -0.0065 ± 0.025 | -0.018 ± 0.0014 | -0.0375 ± 0.0021 | 0.003 ± 0.011 | 0.0265 ± 0.0035
4H:SRB | 0.005 ± 0.0085 | 0.0055 ± 0.022 | -0.003 ± 0.011 | -0.008 ± 0.0042 | -0.026 ± 0.027 | -0.0615 ± 0.015 | -0.0075 ± 0.012 | -0.018 ± 0.014 | -0.0115 ± 0.005 | -0.01 ± 0.0014 | -0.018 ± 0.0099 | -0.0155 ± 0.0021 | 0.0105 ± 0.0021 | 0.006 ± 0.0071 | -0.01 ± 0.025 | -0.012 ± 0.0014 | -0.0135 ± 0.012 | -0.018 ± 0.033 | -0.015 ± 0.013 | 0.0065 ± 0.00071
4H:VEGFR2 | 0.006 ± 0.0057 | 0.003 ± 0.0099 | 0.019 ± 0.042 | -0.02 | -0.019 ± 0.0099 | -0.04 ± 0.0057 | 0.0035 ± 0.04 | 0.007 ± 0.014 | 0.0095 ± 0.018 | 0.009 ± 0.033 | 0.019 ± 0.038 | 0.0075 ± 0.011 | -0.0165 ± 0.042 | 0.01 ± 0.018 | 0.047 ± 0.068 | -0.0345 ± 0.12 | 0.003 ± 0.0014 | -0.026 ± 0.0028 | -0.023 | -0.001 ± 0.027
